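Following 48 hours of exposure in 96-well plates, responses at five concentrations were used to interpolate endpoints linearly. GI50 is the concentration that inhibits growth by half.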 Active and inactive are the calls of the source. Rule as the data show it: active = GI50 up to about 1.1 µM and inactive = higher.
Assays:
Assay in all cases: NCI tumour cell line growth inhibition, 48 h
UO-31 = test system: UO-31
MDA-MB-231 = test system: MDA-MB-231
T47D = test system: T47D
UACC-62 = test system: UACC-62
BT-549 = test system: BT-549
SK-MEL-28 = test system: SK-MEL-28
Hs-578T = test system: Hs-578T
MDA-N = test system: MDA-N
SW-620 = test system: SW-620
IGROV-1 = test system: IGROV-1
MCF7 = test system: MCF7
TK-10 = test system: TK-10
UACC-257 = test system: UACC-257
CAKI-1 = test system: CAKI-1
M14 = test system: M14
OVCAR-3 = test system: OVCAR-3
U-251 = test system: U-251
A549 = test system: A549
HCT-116 = test system: HCT-116
SF-268 = test system: SF-268

Structure (SMILES) | GI50 (UO-31) | GI50 (MDA-MB-231) | GI50 (T47D) | GI50 (UACC-62) | GI50 (BT-549) | GI50 (SK-MEL-28) | GI50 (Hs-578T) | GI50 (MDA-N) | GI50 (SW-620) | GI50 (IGROV-1) | GI50 (MCF7) | GI50 (TK-10) | GI50 (UACC-257) | GI50 (CAKI-1) | GI50 (M14) | GI50 (OVCAR-3) | GI50 (U-251) | GI50 (A549) | GI50 (HCT-116) | GI50 (SF-268)
Cc1ccc(S(=O)(=O)Nc2ccccc2C=O)cc1 | 10.7 µM (inactive) | 15.1 µM (inactive) | 14.9 µM (inactive) | 12.5 µM (inactive) | 18.6 µM (inactive) | 21.3 µM (inactive) | 15.8 µM (inactive) | 15.7 µM (inactive) | 17 µM (inactive) | 17.4 µM (inactive) | 12.4 µM (inactive) | 17.9 µM (inactive) | 18 µM (inactive) | 23.9 µM (inactive) | 19.3 µM (inactive) | 16.9 µM (inactive) | 13.1 µM (inactive) | 27.1 µM (inactive) | 14.8 µM (inactive) | –
CC1=CC(=O)CC(C)(C)C1(O)/C=C/C(C)=C/C(=O)O (stereo not given) | > 100 µM (inactive) | > 100 µM (inactive) | > 100 µM (inactive) | > 100 µM (inactive) | > 100 µM (inactive) | > 100 µM (inactive) | > 100 µM (inactive) | > 100 µM (inactive) | > 100 µM (inactive) | > 100 µM (inactive) | > 100 µM (inactive) | > 100 µM (inactive) | > 100 µM (inactive) | > 100 µM (inactive) | > 100 µM (inactive) | > 100 µM (inactive) | > 100 µM (inactive) | > 100 µM (inactive) | > 100 µM (inactive) | > 100 µM (inactive)
O=c1[nH]nc(-c2ccccc2)n1/N=C/c1ccc([N+](=O)[O-])cc1 | 11.2 µM (inactive) | > 33.2 µM (inactive) | 13.8 µM (inactive) | > 53.8 µM (inactive) | > 100 µM (inactive) | > 100 µM (inactive) | 17 µM (inactive) | > 100 µM (inactive) | > 100 µM (inactive) | > 58.7 µM (inactive) | > 60.1 µM (inactive) | 20 µM (inactive) | > 100 µM (inactive) | 12.3 µM (inactive) | 96.2 µM (inactive) | 19.7 µM (inactive) | 4.74 µM (inactive) | 23.9 µM (inactive) | 25 µM (inactive) | 13 µM (inactive)
COCCOC1=CC(=O)c2c(O)ccc(O)c2C1=O | 2.17 µM (inactive) | 1.75 µM (inactive) | 2.36 µM (inactive) | 1.85 µM (inactive) | 1.77 µM (inactive) | 1.52 µM (inactive) | 4.04 µM (inactive) | 0.186 µM (active) | 0.569 µM (active) | 1.72 µM (inactive) | 0.275 µM (active) | 1.91 µM (inactive) | 0.203 µM (active) | 2.59 µM (inactive) | 0.186 µM (active) | 0.662 µM (active) | 1.92 µM (inactive) | 2 µM (inactive) | 0.285 µM (active) | 1.89 µM (inactive)
CC(C)NC(=O)OCc1c(COC(=O)NC(C)C)c(-c2cc[n+](COC(=O)C(C)C)cc2)n2c1CCC2 | > 100 µM (inactive) | > 100 µM (inactive) | > 94.8 µM (inactive) | 48.9 µM (inactive) | > 100 µM (inactive) | > 100 µM (inactive) | > 100 µM (inactive) | > 100 µM (inactive) | > 100 µM (inactive) | 30.1 µM (inactive) | 64.4 µM (inactive) | 41.5 µM (inactive) | > 100 µM (inactive) | 20 µM (inactive) | 99.5 µM (inactive) | > 100 µM (inactive) | > 100 µM (inactive) | > 100 µM (inactive) | > 100 µM (inactive) | > 74.8 µM (inactive)
Cc1nn(-c2ccccc2)c2c1C(c1cc3ccccc3nc1Cl)NC(=S)N2 (stereo not given) | 20.8 µM (inactive) | > 100 µM (inactive) | > 100 µM (inactive) | 76.7 µM (inactive) | 47.4 µM (inactive) | – | 37.7 µM (inactive) | 45.7 µM (inactive) | 30.1 µM (inactive) | 12 µM (inactive) | 38 µM (inactive) | 58.5 µM (inactive) | > 100 µM (inactive) | 59.4 µM (inactive) | > 100 µM (inactive) | 54 µM (inactive) | 23.4 µM (inactive) | > 100 µM (inactive) | 36.1 µM (inactive) | 34.8 µM (inactive)
O=C1CSC(c2ccc([N+](=O)[O-])cc2)N1c1ccc(-c2ccc(-n3c(-c4ccccc4)nc4ccccc4c3=O)cc2)cc1 (stereo not given) | 46.8 µM (inactive) | 49.8 µM (inactive) | 21.5 µM (inactive) | 35.1 µM (inactive) | 53.3 µM (inactive) | 81.3 µM (inactive) | > 100 µM (inactive) | 75 µM (inactive) | > 100 µM (inactive) | – | 33.1 µM (inactive) | 66.2 µM (inactive) | > 100 µM (inactive) | > 100 µM (inactive) | 59 µM (inactive) | 53.1 µM (inactive) | 83 µM (inactive) | 57 µM (inactive) | 60.5 µM (inactive) | > 100 µM (inactive)
COc1cc(OC)c2c(=O)c(OC)c(-c3ccc4c(c3)OCO4)oc2c1OC | > 100 µM (inactive) | 91.4 µM (inactive) | 41.8 µM (inactive) | 98.9 µM (inactive) | > 100 µM (inactive) | > 100 µM (inactive) | > 100 µM (inactive) | > 100 µM (inactive) | > 100 µM (inactive) | > 100 µM (inactive) | > 100 µM (inactive) | > 100 µM (inactive) | > 100 µM (inactive) | > 100 µM (inactive) | > 100 µM (inactive) | > 100 µM (inactive) | > 100 µM (inactive) | > 100 µM (inactive) | 83.9 µM (inactive) | > 100 µM (inactive)
CC(=O)O[C@H]1CC[C@@]2(C)C(=CC[C@@H]3[C@@H]2CC[C@]2(C)C(=N/O)/C(=C\c4ccccc4)C[C@@H]32)C1 | 9.06 µM (inactive) | 20.5 µM (inactive) | 7.53 µM (inactive) | 5.94 µM (inactive) | 16.5 µM (inactive) | 12.7 µM (inactive) | 22.5 µM (inactive) | 4.71 µM (inactive) | 20.9 µM (inactive) | 44.2 µM (inactive) | 13 µM (inactive) | 24.2 µM (inactive) | 6.52 µM (inactive) | 24.7 µM (inactive) | 4.9 µM (inactive) | 11.3 µM (inactive) | 24.9 µM (inactive) | 14.4 µM (inactive) | 6.12 µM (inactive) | 24.2 µM (inactive)
COC(=O)c1cc(C)ccc1CC(Cc1ccccc1C)C(=O)OC (stereo not given) | 31 µM (inactive) | 59.6 µM (inactive) | 26 µM (inactive) | 27.5 µM (inactive) | 61.7 µM (inactive) | 88.1 µM (inactive) | 27.9 µM (inactive) | 28.4 µM (inactive) | 69 µM (inactive) | 45.9 µM (inactive) | 23.3 µM (inactive) | > 100 µM (inactive) | 27 µM (inactive) | 32.8 µM (inactive) | 29.6 µM (inactive) | 24.4 µM (inactive) | – | 51.6 µM (inactive) | 14.7 µM (inactive) | 61.2 µM (inactive)
COC(=O)NN(C(=O)OC)c1c(-c2ccccc2)nc(SC)n1N | > 100 µM (inactive) | > 100 µM (inactive) | > 100 µM (inactive) | > 100 µM (inactive) | > 100 µM (inactive) | > 100 µM (inactive) | > 100 µM (inactive) | > 100 µM (inactive) | > 100 µM (inactive) | > 100 µM (inactive) | > 100 µM (inactive) | > 100 µM (inactive) | > 100 µM (inactive) | > 100 µM (inactive) | > 100 µM (inactive) | > 100 µM (inactive) | > 100 µM (inactive) | > 100 µM (inactive) | > 100 µM (inactive) | > 100 µM (inactive)
O=S(=O)(Nc1nc2ccccc2nc1N1CCCCCC1)c1ccccc1 | 12.4 µM (inactive) | > 100 µM (inactive) | > 100 µM (inactive) | 18.4 µM (inactive) | 19 µM (inactive) | 28.2 µM (inactive) | 17.5 µM (inactive) | > 100 µM (inactive) | 22.7 µM (inactive) | 20.8 µM (inactive) | 28.6 µM (inactive) | 16.8 µM (inactive) | 24.5 µM (inactive) | > 100 µM (inactive) | 22.5 µM (inactive) | 17.1 µM (inactive) | 18.6 µM (inactive) | 24.7 µM (inactive) | > 100 µM (inactive) | 37.7 µM (inactive)
CCCCCCCCCCCCOC1C(COCCN2CCCC2)OC2OC(C)(C)OC21 (stereo not given) | 1.6 µM (inactive) | 1.5 µM (inactive) | 2.07 µM (inactive) | 1.91 µM (inactive) | 1.66 µM (inactive) | 1.72 µM (inactive) | 1.76 µM (inactive) | 1.41 µM (inactive) | – | 1.72 µM (inactive) | 1.71 µM (inactive) | 1.66 µM (inactive) | 1.75 µM (inactive) | 1.6 µM (inactive) | 1.85 µM (inactive) | 1.62 µM (inactive) | 1.73 µM (inactive) | 4.42 µM (inactive) | 1.75 µM (inactive) | 2 µM (inactive)
O=C(O)CNCc1c2ccccc2nc2ccccc12 | 25.2 µM (inactive) | 43 µM (inactive) | 31.7 µM (inactive) | 44.7 µM (inactive) | 33.4 µM (inactive) | 59.6 µM (inactive) | 20.4 µM (inactive) | 32.4 µM (inactive) | 26.4 µM (inactive) | 45.9 µM (inactive) | 27.7 µM (inactive) | 61.9 µM (inactive) | 34.1 µM (inactive) | 35.7 µM (inactive) | 47.6 µM (inactive) | 38.6 µM (inactive) | 60 µM (inactive) | 43.4 µM (inactive) | 12.1 µM (inactive) | 32.7 µM (inactive)

Source: ChEMBL document CHEMBL1201862, “PubChem BioAssay data set” (2004)
